In general, inhibition refers to how much of the control response was suppressed. Low readings indicate a weak effect, high ones a strong effect.

The test system of the assay is human hepatoma Huh-7 cell line harboring a HCV replicon. Description: HCV replicon assay (inhibition of viral replication, luciferase readout). It is filed as cell-based. The note with it: Hepatitis C virus, 72 h, Huh-7 HCV replicon cells, 3 days incubation. The procedure, abridged: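 Read-outs: luciferase luminescence for replication inhibition, corrected by ITMN-191 (100% inhibition) wells, and calcein AM fluorescence for cytotoxicity. Cells were treated for 3 days at 37 °C with ten 3-fold compound dilutions in 0.44% final DMSO. Percent inhibition relative to DMSO was fitted with a Hill equation to give EC50 and CC50.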
Turning to `CC1=CC[C@H](C(=O)N(c2cc(C#CC(C)(C)C)sc2C(=O)O)[C@H]2CC[C@H](O[C@H]3CCOC3)CC2)CC1` [Compound 336], the inhibition at 2 µM is 100%.

On to `CC1=CC[C@@H](C(=O)N(c2cc(C#CC(C)(C)C)sc2C(=O)O)[C@H]2CC[C@H](Oc3cc(CN(C)C)ccn3)CC2)CC1` [Compound 337, 3-[[4-(4-Dimethylaminomethyl-pyridin-2-yloxy)-trans-cyclohexyl]-(4-methyl-cyclohex-3-enecarbonyl)-amino]-5-(3,3-dimethyl-but-1-ynyl)-thiophene-2-carboxylic acid], for which the inhibition at 2 µM was 100%.

For `CN(C)Cc1ccnc(O[C@H]2CC[C@H](N(c3cc(C#CC4(C(F)(F)F)CCC4)sc3C(=O)O)C(=O)[C@H]3CC[C@H](C)CC3)CC2)c1` [Compound 338, 3-((1r,4R)—N-((1r,4R)-4-(4-((dimethylamino)methyl)pyridin-2-yloxy)cyclohexyl)-4-methylcyclohexanecarboxamido)-5-((1-(trifluoromethyl)cyclobutyl)ethynyl)thiophene-2-carboxylic acid], the inhibition at 2 µM came to 99.9%.

On to `C[C@H]1CC[C@H](C(=O)N(c2cc(C#CC3(C(F)(F)F)CCC3)sc2C(=O)O)[C@H]2CC[C@H](Oc3ccc(O)nn3)CC2)CC1` [Compound 339, 3-((1r,4R)—N-((1r,4R)-4-(6-hydroxypyridazin-3-yloxy)cyclohexyl)-4-methylcyclohexanecarboxamido)-5-((1-(trifluoromethyl)cyclobutyl)ethynyl)thiophene-2-carboxylic acid], for which the inhibition at 2 µM came to 99.9%.

For `CN(C)Cc1ccnc(O[C@H]2CC[C@H](N(c3cc(C#CC4(C(F)(F)F)CC4)sc3C(=O)O)C(=O)[C@H]3CC[C@H](C)CC3)CC2)c1` [Compound 340, 3-((1r,4R)—N-((1r,4R)-4-(4-((dimethylamino)methyl)pyridin-2-yloxy)cyclohexyl)-4-methylcyclohexanecarboxamido)-5-((1-(trifluoromethyl)cyclopropyl)ethynyl)thiophene-2-carboxylic acid], testing at 2 µM gave an inhibition of 100%.

On to `CN(C)Cc1ccnc(O[C@H]2CC[C@H](N(c3cc(C#CC(C)(C)C(F)(F)F)sc3C(=O)O)C(=O)[C@H]3CC[C@H](C)CC3)CC2)c1` [Compound 341, 3-((1r,4R)—N-((1r,4R)-4-(4-((dimethylamino)methyl)pyridin-2-yloxy)cyclohexyl)-4-methylcyclohexanecarboxamido)-5-(4,4,4-trifluoro-3,3-dimethylbut-1-ynyl)thiophene-2-carboxylic acid], for which the inhibition at 2 µM turned out to be 100%.

Molecule `C[C@H]1CC[C@H](C(=O)N(c2cc(C#CC3(C(F)(F)F)CC3)sc2C(=O)O)[C@H]2CC[C@H](Oc3ccc(O)nn3)CC2)CC1` [Compound 342, 3-((1r,4R)—N-((1r,4R)-4-(6-hydroxypyridazin-3-yloxy)cyclohexyl)-4-methylcyclohexanecarboxamido)-5-((1-(trifluoromethyl)cyclopropyl)ethynyl)thiophene-2-carboxylic acid] returned an inhibition at 2 µM of 100%.

In turn, `CC(C)(C#Cc1cc(N(C(=O)[C@H]2CC[C@H](C)CC2)[C@H]2CC[C@H](Oc3ccc(O)nn3)CC2)c(C(=O)O)s1)C(F)(F)F` [Compound 343, 3-((1r,4R)—N-((1r,4R)-4-(6-hydroxypyridazin-3-yloxy)cyclohexyl)-4-methylcyclohexanecarboxamido)-5-(4,4,4-trifluoro-3,3-dimethylbut-1-ynyl)thiophene-2-carboxylic acid] returned an inhibition at 2 µM of 100%.

`C[C@H]1CC[C@H](C(=O)N(c2cc(C#CC3(C(F)(F)F)CC3)sc2C(=O)O)[C@H]2CC[C@H](Oc3ccncn3)CC2)CC1` [Compound 344, 3-((1r,4R)-4-methyl-N-((1r,4R)-4-(pyrimidin-4-yloxy)cyclohexyl)cyclohexanecarboxamido)-5-(2-(1-(trifluoromethyl)cyclopropyl)ethynyl)thiophene-2-carboxylic acid]: the inhibition at 2 µM came out at 99.8%.

The values are drawn from patent publication US8569302B2, “Inhibitors of flaviviridae viruses” (Gilead Sciences, Inc., priority 2009, dated 2013).
